Measured values published in the supplement of paper PMC10883282.

How the values were obtained:
Test in all cases: relative viability vs DMSO control (72 h) (fraction); higher = more viable cells
G401 = test system: G401
Outline: (§1)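 Relative viability is percent growth read by ATPLite and averaged over up to triplicate wells. Sarcoma cells were seeded in 384-well plates to reach 80–90% confluence and given 2.5 µl of serially diluted compound after 24 h, from source plates of 10 mM to 0.0002 mM. Incubation lasted 72 h at 37 °C, 5% CO2, with 0.1% DMSO vehicle and a 5 µM positive control, and the data were rescaled so 1 equals full and 0 equals none.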

HS729 = test system: HS729
Outline: as §1

HT1080 = test system: HT1080
Outline: as §1

KHOS-240S = test system: KHOS-240S
Outline: as §1

KHOS-NP = test system: KHOS-NP
Outline: as §1

RD-ES = test system: RD-ES
Outline: as §1

RD = test system: RD
Outline: as §1

SK-LMS-1 = test system: SK-LMS-1
Outline: as §1

SW1353 = test system: SW1353
Outline: as §1

SW684 = test system: SW684
Outline: as §1

SW872 = test system: SW872
Outline: as §1

SYO-1 = test system: SYO-1
Outline: as §1

COCCNc1cc(NC(=O)N2CCCc3cc(CN4CCN(C)CC4=O)c(C=O)nc32)ncc1C#N [Roblitinib]
Details	relative viability
G401, 0.00017 µM	0.974
G401, 0.00051 µM	0.955
G401, 0.00152 µM	0.929
G401, 0.00457 µM	0.9122
G401, 0.01372 µM	0.943
G401, 0.04115 µM	0.93
G401, 0.1235 µM	0.96
G401, 0.3704 µM	0.967
G401, 1.111 µM	0.943
G401, 3.333 µM	0.935
G401, 10 µM	0.8671
HS729, 0.00017 µM	0.894
HS729, 0.00051 µM	0.906
HS729, 0.00152 µM	0.906
HS729, 0.00457 µM	0.894
HS729, 0.01372 µM	0.891
HS729, 0.04115 µM	0.876
HS729, 0.1235 µM	0.858
HS729, 0.3704 µM	0.858
HS729, 1.111 µM	0.849
HS729, 3.333 µM	0.892
HS729, 10 µM	0.914
HT1080, 0.00017 µM	1
HT1080, 0.00051 µM	1.04
HT1080, 0.00152 µM	0.971
HT1080, 0.00457 µM	0.9973
HT1080, 0.01372 µM	0.951
HT1080, 0.04115 µM	1.04
HT1080, 0.1235 µM	1.05
HT1080, 0.3704 µM	1.07
HT1080, 1.111 µM	0.952
HT1080, 3.333 µM	1.029
HT1080, 10 µM	0.997
KHOS-240S, 0.00017 µM	1.04
KHOS-240S, 0.00051 µM	1.04
KHOS-240S, 0.00152 µM	1.026
KHOS-240S, 0.00457 µM	1.04
KHOS-240S, 0.01372 µM	1.02
KHOS-240S, 0.04115 µM	1.03
KHOS-240S, 0.1235 µM	1.035
KHOS-240S, 0.3704 µM	1.03
KHOS-240S, 1.111 µM	1
KHOS-240S, 3.333 µM	0.963
KHOS-240S, 10 µM	0.967
KHOS-NP, 0.00017 µM	1.05
KHOS-NP, 0.00051 µM	1.03
KHOS-NP, 0.00152 µM	1.04
KHOS-NP, 0.00457 µM	1.04
KHOS-NP, 0.01372 µM	1.05
KHOS-NP, 0.04115 µM	1.04
KHOS-NP, 0.1235 µM	1.06
KHOS-NP, 0.3704 µM	1.05
KHOS-NP, 1.111 µM	1.05
KHOS-NP, 3.333 µM	1.04
KHOS-NP, 10 µM	1.02
RD, 0.00017 µM	1.08
RD, 0.00051 µM	1.074
RD, 0.00152 µM	1.053
RD, 0.00457 µM	1.08
RD, 0.01372 µM	1.08
RD, 0.04115 µM	1.09
RD, 0.1235 µM	1.1
RD, 0.3704 µM	1.118
RD, 1.111 µM	1.04
RD, 3.333 µM	1.08
RD, 10 µM	1.01
RD-ES, 0.00017 µM	0.972
RD-ES, 0.00051 µM	0.981
RD-ES, 0.00152 µM	0.986
RD-ES, 0.00457 µM	0.965
RD-ES, 0.01372 µM	0.968
RD-ES, 0.04115 µM	0.9621
RD-ES, 0.1235 µM	0.958
RD-ES, 0.3704 µM	0.952
RD-ES, 1.111 µM	0.936
RD-ES, 3.333 µM	0.884
RD-ES, 10 µM	0.867
SK-LMS-1, 0.00017 µM	0.941
SK-LMS-1, 0.00051 µM	0.942
SK-LMS-1, 0.00152 µM	0.932
SK-LMS-1, 0.00457 µM	0.957
SK-LMS-1, 0.01372 µM	0.938
SK-LMS-1, 0.04115 µM	0.988
SK-LMS-1, 0.1235 µM	0.921
SK-LMS-1, 0.3704 µM	0.995
SK-LMS-1, 1.111 µM	0.984
SK-LMS-1, 3.333 µM	0.883
SK-LMS-1, 10 µM	0.858
SW684, 0.00017 µM	1.1
SW684, 0.00051 µM	1.09
SW684, 0.00152 µM	1.08
SW684, 0.00457 µM	1.03
SW684, 0.01372 µM	1.04
SW684, 0.04115 µM	1.05
SW684, 0.1235 µM	1.09
SW684, 0.3704 µM	1.08
SW684, 1.111 µM	1.13
SW684, 3.333 µM	1.09
SW684, 10 µM	1.02
SW872, 0.00017 µM	0.926
SW872, 0.00051 µM	0.924
SW872, 0.00152 µM	0.968
SW872, 0.00457 µM	0.951
SW872, 0.01372 µM	0.939
SW872, 0.04115 µM	0.963
SW872, 0.1235 µM	0.921
SW872, 0.3704 µM	0.977
SW872, 1.111 µM	0.9644
SW872, 3.333 µM	0.974
SW872, 10 µM	0.988
SW1353, 0.00017 µM	0.959
SW1353, 0.00051 µM	0.935
SW1353, 0.00152 µM	0.899
SW1353, 0.00457 µM	0.95
SW1353, 0.01372 µM	0.953
SW1353, 0.04115 µM	0.953
SW1353, 0.1235 µM	0.942
SW1353, 0.3704 µM	0.958
SW1353, 1.111 µM	0.922
SW1353, 3.333 µM	0.949
SW1353, 10 µM	0.961
SYO-1, 0.00017 µM	0.933
SYO-1, 0.00051 µM	0.931
SYO-1, 0.00152 µM	0.9221
SYO-1, 0.00457 µM	0.92
SYO-1, 0.01372 µM	0.914
SYO-1, 0.04115 µM	0.889
SYO-1, 0.1235 µM	0.879
SYO-1, 0.3704 µM	0.855
SYO-1, 1.111 µM	0.867
SYO-1, 3.333 µM	0.845
SYO-1, 10 µM	0.87
